Assay results reported in patent publication US11708393B2, “Targeted non-invasive imaging probes of EGFR expressing cells” (priority 2011, dated 2023).
Entries after “also recorded” stand apart in the source; their conditions may differ. Cy5.5 = cyanine fluorochrome label, coupled as NHS ester; AEEA = NCCOCCOCC(=O)O

Key:
[1] = system: Gli36Δ5 orthotopic brain tumors overexpressing EGFR; assay: Ex vivo fluorescence imaging of brains with orthotopic Gli36Δ5 tumors; format: in vivo, mice; conditions: for accumulation in tumor, % of injected dose: 1 nmol/g tail vein, 1 hour, brains imaged ex vivo; for tumor targeting (in words): 1 nmol/g, ex vivo analysis of brain tissues
Procedure: NIH athymic nude female mice (5-8 weeks and 20-25 g upon arrival, NCI-NIH) were maintained at the Animal Resource Center at Case Western Reserve University (Cleveland, Ohio) according to institutional policies. Cell for brain implantation were harvested with 1 mL 0.05% trypsin-EDTA (Gibco) and briefly washed with PBS. Trypsin was inactivated by the addition of serum-containing media. The resulting cell suspension was centrifuged at […] for 3 minutes. The cell suspension was centrifuged and the supernatant was removed after 2 washes in PBS. Finally, the cells were resuspended in […] PBS for brain implants per animal (250,000 cells per animal for brain implants). Immediately following the cell harvesting procedure, animals were inoculated. For brain tumor implantation, mice were anesthetized by intraperitoneal (i.p.) injection of 50 mg/kg ketamine/xylazine and fitted into a stereotaxic rodent frame (David Kopf Instruments). A small incision was made just lateral to midline to expose bregma suture. A small (1.0 mm) burr hole was drilled at anterior (AP)=+1, lateral (ML)=−2.5 from the bregma. Glioblastoma cells were slowly deposited at a rate of 1 μL/min in the right striatum at a depth of 3 mm from dura with a 10-μL syringe (23-G needle). The needle was slowly withdrawn and the incision was closed with 2 to 3 sutures. Brain tumors grew for 10 to 12 days as per IACUC protocols at which point in vivo imaging studies were conducted. As control for the effects of surgical intervention, animals were also subjected to the implantation procedure but Optical Imaging of Tumors with EGFR Overexpression received 2 μL PBS (sham animals). Animals were fed exclusively on a special rodent diet (Harlan Laboratories, Inc.; Tekland 2018S) to reduce autofluorescence.
Mice bearing brain tumors derived from Gli36Δ5 or U87-MG cells were administered with compounds at 1 nmol/g via tail vein injection. In vivo competition assays were done with mixture of compound 2 and 10-fold concentration of nonlabeled probe 5. Before injection, mice were anesthetized with isoflurane and subjected to tomographic and spectral fluorescence imaging. One hour after injection, animals were re-imaged. Brains were then extracted and imaged. The excised brains were embedded in Tissue-Tek optimum cutting temperature for cryosections for immunohistochemistry (IHC). Fluorescence-mediated molecular tomography (FMT) images were obtained using FMT2500 (Perkin-Elmer), and 3-dimensional reconstructions of fluorescent signals were acquired using the accompanying software TrueQuant. Quantitative fluorescent signals for Cy5.5 of compound 2 were calibrated as per manufacturer's instructions using the 680-channel. Region of interest (ROI) assigned on the basis of the precise placement of cells during implantation at 3 to 4 mm into the brain. ROI was corroborated with fluorescent signals from ex vivo imaging. Fluorescent multispectral images were obtained using the Maestro In-Vivo Imaging System (CRi, Inc.). […] Fluorescence images were acquired before treatment, immediately after and 1.5 hours after treatment. To compare signal intensities, ROIs were selected over the tumor or nontumor areas, and the change in fluorescence signal over baseline was determined. […] The total signal in the ROI defined in photons measured at the surface of the animal was divided by the area (in pixels). Spectral libraries were generated by assigning spectral peaks to background and fluorescence probe on tissue. […]

[2] = system: A431 cells (high wild-type EGFR); assay: Saturation binding and fluorescence uptake in A431 cells; format: cell-based, human; conditions: A431 cells incubated with compound plus EGF ligand
Source text: We also examined the expression of EGFRvIII in the cell lines. […] In addition, we examined A431 cells, a squamous carcinoma cell line, that expresses high levels of wild-type EGFR.

[3] = system: U87-MG orthotopic brain tumors; assay: In vivo FMT imaging of orthotopic U87-MG brain tumors; parameters: species or system mice
Procedure: (§1) NIH athymic nude female mice (5-8 weeks and 20-25 g upon arrival, NCI-NIH) were maintained at the Animal Resource Center at Case Western Reserve University (Cleveland, Ohio) according to institutional policies. Cell for brain implantation were harvested with 1 mL 0.05% trypsin-EDTA (Gibco) and briefly washed with PBS. Trypsin was inactivated by the addition of serum-containing media. The resulting cell suspension was centrifuged at […] for 3 minutes. The cell suspension was centrifuged and the supernatant was removed after 2 washes in PBS. Finally, the cells were resuspended in […] PBS for brain implants per animal (250,000 cells per animal for brain implants). […]
(§2) Mice bearing brain tumors derived from Gli36Δ5 or U87-MG cells were administered with compounds at 1 nmol/g via tail vein injection. […] Before injection, mice were anesthetized with isoflurane and subjected to tomographic and spectral fluorescence imaging. […] Fluorescence-mediated molecular tomography (FMT) images were obtained using FMT2500 (Perkin-Elmer), and 3-dimensional reconstructions of fluorescent signals were acquired using the accompanying software TrueQuant. Quantitative fluorescent signals for Cy5.5 of compound 2 were calibrated as per manufacturer's instructions using the 680-channel. […] Fluorescence images were acquired before treatment, immediately after and 1.5 hours after treatment. […]

[4] = system: Gli36Δ5 orthotopic brain tumors; assay: In vivo FMT imaging of orthotopic Gli36Δ5 brain tumors; parameters: species or system mice
Procedure: as §1, §2

Gli36Δ5 cells = assay: Receptor uptake, cell-associated fluorescence in Gli36Δ5 cells; format: cell-based, human; conditions: 1 μmol/L compound
Procedure: FIG. 2 illustrates a plot showing cell associated fluorescence measured using spectrofluorometry at the indicated times for Gli36Δ5 cells incubated with 1 μmol/L of compounds 1 to 4 [Cy5.5-(AEEA)n-EGFpep].
FIGS. 3(A-B) illustrate images showing Gli36Δ5 (A) and U87-MG (B) cells incubated with 1 μmol/L compounds for the indicated times. Uptake of the compounds was assessed using epifluorescence microscopy. Images were taken at ×40 magnification. Scale bar, 50 μm.
Gli36Δ5 or U87-MG cell lines plated in 96-well culture plates (20,000 cells per well; 3 wells per condition) were incubated over indicated time periods with […] of Cy5.5-labeled EGF peptides 2, 3, and 4 at 37° C. and 5% CO2. Cells were briefly rinsed with HEPES buffer and imaged with a Tecan Infinite M200 fluorescence plate reader (excitation 670 nm, emission 700 nm).

[5] = In vivo FMT imaging of sham surgery animals; parameters: species or system mice
Procedure: as §1, §2

EGFR = biological target: T1, EGFR (Homo sapiens, UniProt P00533); assay: Saturation binding assay of Cy5.5-labeled peptides on Gli36Δ5 cells; conditions: for Kd: 37° C., 90 minutes, read-out: apparent binding affinity Kd from saturation binding assay
T1 construct: endogenous in cells; host or cells: Gli36Δ5 human glioblastoma cells
Procedure: To determine binding affinities of the Cy5.5-labeled peptides 1 to 4 to EGFR, a saturation binding assay protocol using labeled fluorescence ligand against cell surface receptors was adapted as previously reported. Briefly, Gli36Δ5 cells were plated 20,000 cells per well were plated on black Costar 96-well plates (cat. no. 3603). Probes were diluted to range of concentration ([…]) in growing media with 0.3% bovine serum albumin (BSA) and added into wells and incubated at 37° C. for 90 minutes at 5% CO2. Cells were then washed with PBS twice and dried. DMSO was added before reading fluorescence (excitation 670 nm, emission 700 nm) with a Tecan Infinite M200 plate reader. Saturation binding assay data were in quadruplicates and analyzed using one site binding classical equation for nonlinear regression analysis with the GraphPad Prism version 4.0.
Binding affinity was determined with nonlinear regression analysis with one site binding hyperbola with an equation: […], where Bmax is the maximal binding site and the Kd is the concentration required to reach half-maximal binding. ANOVA analysis at 95% confidence interval (CI) was used to compare treatments (*, […]; confidence interval, ***, […]). To compare live animal FMT, nonparametric one-way ANOVA analyses (Kruskal-Wallis tests) and the median differences were considered significant with P=0.0220.

[6] = biological target: human epidermal growth factor receptor (EGFR) (human) (UniProt P00533); assay: cell-based or functional assay

Row | Molecule | accumulation in tumor, % of injected dose [1] | tumor targeting (in words) [1] | cellular uptake / accumulation of fluorescence (in words) (Gli36Δ5 cells) | binding affinity to the cells (in words) (EGFR) | Kd (EGFR) [µM] | further results
1 | Cy5.5-(AEEA)1-NYQTPVYGWIYH-amide ({Cy5.5-AEEA}-NYQTPVYGWIYH-NH2) [Compound 6, Cy5.5-labeled scrambled peptide, specificity control, reference compound] | 0.006 % of injected dose | did not target the tumor | – | – | – | –
2 | Cy5.5-(AEEA)1-YHWYGYTPQNVI-amide [Compound 2] | 1.1 % of injected dose | targeted the tumor efficiently | greatest accumulation of fluorescence | micromolar range | 8.9 | tumor targeting (in words) ([1]; listed as compound 2): targets the tumor significantly (***, P>0.0001) more efficiently than the scrambled peptide 6; cell fluorescence in the presence of EGF ligand (in words) [2]: increasing fluorescence in the presence of the EGF ligand; fluorescence signal as injected dose ([3]; U87-MG brain tumors, 1 nmol/g, 1 hour, FMT): 0.27%; amount of fluorescence in matching ROI (FMT 3-dimensional reconstruction) ([3]; U87-MG tumor): 1,608 nmol/L; fluorescence signal as injected dose ([4]; Gli36Δ5 brain tumors, 1 nmol/g, 1 hour, FMT): 1.1%; amount of fluorescence in matching ROI (FMT 3-dimensional reconstruction) ([4]; Gli36Δ5 tumor): 9,271 nmol/L; amount of fluorescence in matching ROI (FMT 3-dimensional reconstruction) [5]: 272 nmol/L
3 | Cy5.5-(AEEA)2-YHWYGYTPQNVI-amide [Compound 3] | – | – | Neither compound 1 (no linker) nor either of the molecules with greater linker numbers (compounds 3 and 4) was taken up by the cells to the same extent as compound 2 | micromolar range | 64.4 | –
4 | Cy5.5-(AEEA)3-YHWYGYTPQNVI-amide [Compound 4] | – | – | Neither compound 1 (no linker) nor either of the molecules with greater linker numbers (compounds 3 and 4) was taken up by the cells to the same extent as compound 2; also recorded: taken up by cells better than compound 3 | micromolar range | 123 | –
5 | Cy5.5-YHWYGYTPQNVI-amide [Compound 1] | – | – | Neither compound 1 (no linker) nor either of the molecules with greater linker numbers (compounds 3 and 4) was taken up by the cells to the same extent as compound 2 | micromolar range | 18.5 | –
6 | NYQTPVYGWIYH (Cy5.5-(AEEA)1 at the N-terminus; C-terminal amide) [Compound 6: Cy5.5-(AEEA)1-…-amide scrambled] | – | – | – | – | – | percent of injected dose delivered to Gli36Δ5 brain tumor (% of injected dose) [6]: 0.006
